Measurements from PubChem BioAssay (NCI).
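Five concentrations, 48 hours, 96-well plates. At the TGI there is no net growth.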

What follows are compounds tested on SF-268 CNS (assay: NCI anticancer screen, dose series, 48 h).
In the case of `COc1ccc(C(c2ccc(OC)cc2)N2C(=O)CCC2C(=O)O)cc1` (centres undefined), the TGI was greater than 100 µM. `CCOC(=O)C1=C(C#N)S(=O)(=O)c2c(oc(C)c2C)N1` was tested, and the TGI was greater than 100 µM. With `Cc1cccc(/C=N/NC(=S)Nc2ccc(Cl)cc2)n1` the TGI was 17.4 µM. Compound `Cc1ccc(O)c(-c2cc(-c3cccc(Br)c3)c(C#N)c(N)n2)c1` has a TGI greater than 100 µM. Compound `O=[N+]([O-])c1ccc(NC(=S)N=Nc2c(O)[nH]c3ccccc23)cc1` has a TGI of 37.9 µM.

The compounds below were run on K-562 leukemia (assay: NCI anticancer screen, dose series, 48 h).
Work on `COc1ccc(C(c2ccc(OC)cc2)N2C(=O)CCC2C(=O)O)cc1` (centres undefined) yielded a TGI greater than 100 µM. Compound `CCOC(=O)C1=C(C#N)S(=O)(=O)c2c(oc(C)c2C)N1` has a TGI greater than 100 µM. Compound `Cc1cccc(/C=N/NC(=S)Nc2ccc(Cl)cc2)n1` has a TGI greater than 100 µM. In the case of `Cc1ccc(O)c(-c2cc(-c3cccc(Br)c3)c(C#N)c(N)n2)c1`, the TGI was 57.3 µM. Compound `O=[N+]([O-])c1ccc(NC(=S)N=Nc2c(O)[nH]c3ccccc23)cc1` has a TGI greater than 100 µM.

These compounds were tested on HL-60(TB) leukemia (assay: NCI anticancer screen, dose series, 48 h).
`COc1ccc(C(c2ccc(OC)cc2)N2C(=O)CCC2C(=O)O)cc1` (centres undefined) gave a TGI greater than 100 µM. With `Cc1ccc(O)c(-c2cc(-c3cccc(Br)c3)c(C#N)c(N)n2)c1` the TGI was 72 µM. Work on `O=[N+]([O-])c1ccc(NC(=S)N=Nc2c(O)[nH]c3ccccc23)cc1` yielded a TGI greater than 100 µM.

The compounds below were run on MDA-MB-435 (assay: NCI anticancer screen, dose series, 48 h).
For `COc1ccc(C(c2ccc(OC)cc2)N2C(=O)CCC2C(=O)O)cc1` (centres undefined), the TGI was greater than 100 µM. Compound `CCOC(=O)C1=C(C#N)S(=O)(=O)c2c(oc(C)c2C)N1` has a TGI greater than 100 µM. `Cc1cccc(/C=N/NC(=S)Nc2ccc(Cl)cc2)n1` showed a TGI of 17.5 µM. In the case of `Cc1ccc(O)c(-c2cc(-c3cccc(Br)c3)c(C#N)c(N)n2)c1`, the TGI was 39.8 µM. With `O=[N+]([O-])c1ccc(NC(=S)N=Nc2c(O)[nH]c3ccccc23)cc1` the TGI was 53.7 µM.

These compounds were tested on OVCAR-5 ovarian (assay: NCI anticancer screen, dose series, 48 h).
In the case of `COc1ccc(C(c2ccc(OC)cc2)N2C(=O)CCC2C(=O)O)cc1` (centres undefined), the TGI was greater than 100 µM. Work on `CCOC(=O)C1=C(C#N)S(=O)(=O)c2c(oc(C)c2C)N1` yielded a TGI greater than 100 µM. `Cc1cccc(/C=N/NC(=S)Nc2ccc(Cl)cc2)n1` showed a TGI of 73.3 µM. For `Cc1ccc(O)c(-c2cc(-c3cccc(Br)c3)c(C#N)c(N)n2)c1`, the TGI was greater than 100 µM. For `O=[N+]([O-])c1ccc(NC(=S)N=Nc2c(O)[nH]c3ccccc23)cc1`, the TGI was 43.3 µM.

Each compound was assayed on UACC-62 melanoma (assay: NCI anticancer screen, dose series, 48 h).
For `COc1ccc(C(c2ccc(OC)cc2)N2C(=O)CCC2C(=O)O)cc1` (centres undefined), the TGI was greater than 100 µM. Work on `CCOC(=O)C1=C(C#N)S(=O)(=O)c2c(oc(C)c2C)N1` yielded a TGI greater than 100 µM. For `Cc1cccc(/C=N/NC(=S)Nc2ccc(Cl)cc2)n1`, the TGI was 3.68 µM. `Cc1ccc(O)c(-c2cc(-c3cccc(Br)c3)c(C#N)c(N)n2)c1` gave a TGI of 37.4 µM. Work on `O=[N+]([O-])c1ccc(NC(=S)N=Nc2c(O)[nH]c3ccccc23)cc1` yielded a TGI of 24 µM.

What follows are compounds tested on SK-MEL-28 melanoma (assay: NCI anticancer screen, dose series, 48 h).
For `COc1ccc(C(c2ccc(OC)cc2)N2C(=O)CCC2C(=O)O)cc1` (centres undefined), the TGI was greater than 100 µM. In the case of `CCOC(=O)C1=C(C#N)S(=O)(=O)c2c(oc(C)c2C)N1`, the TGI was greater than 100 µM. With `Cc1cccc(/C=N/NC(=S)Nc2ccc(Cl)cc2)n1` the TGI was 20 µM. Work on `O=[N+]([O-])c1ccc(NC(=S)N=Nc2c(O)[nH]c3ccccc23)cc1` yielded a TGI of 36.9 µM.

Each compound was assayed on EKVX NSCLC (assay: NCI anticancer screen, dose series, 48 h).
`COc1ccc(C(c2ccc(OC)cc2)N2C(=O)CCC2C(=O)O)cc1` (centres undefined) was tested, and the TGI was greater than 100 µM. For `CCOC(=O)C1=C(C#N)S(=O)(=O)c2c(oc(C)c2C)N1`, the TGI was greater than 100 µM. `Cc1cccc(/C=N/NC(=S)Nc2ccc(Cl)cc2)n1` showed a TGI of 23.1 µM. In the case of `Cc1ccc(O)c(-c2cc(-c3cccc(Br)c3)c(C#N)c(N)n2)c1`, the TGI was 65.5 µM. In the case of `O=[N+]([O-])c1ccc(NC(=S)N=Nc2c(O)[nH]c3ccccc23)cc1`, the TGI was 43 µM.

Each compound was assayed on SR leukemia (assay: NCI anticancer screen, dose series, 48 h).
Work on `COc1ccc(C(c2ccc(OC)cc2)N2C(=O)CCC2C(=O)O)cc1` (centres undefined) yielded a TGI greater than 100 µM. For `CCOC(=O)C1=C(C#N)S(=O)(=O)c2c(oc(C)c2C)N1`, the TGI was greater than 100 µM. With `Cc1cccc(/C=N/NC(=S)Nc2ccc(Cl)cc2)n1` the TGI was greater than 100 µM. With `Cc1ccc(O)c(-c2cc(-c3cccc(Br)c3)c(C#N)c(N)n2)c1` the TGI was 46.8 µM. For `O=[N+]([O-])c1ccc(NC(=S)N=Nc2c(O)[nH]c3ccccc23)cc1`, the TGI was greater than 100 µM.

The compounds below were run on MDA-MB-231 breast (assay: NCI anticancer screen, dose series, 48 h).
`COc1ccc(C(c2ccc(OC)cc2)N2C(=O)CCC2C(=O)O)cc1` (centres undefined) showed a TGI greater than 100 µM. `CCOC(=O)C1=C(C#N)S(=O)(=O)c2c(oc(C)c2C)N1` showed a TGI greater than 100 µM. Work on `Cc1cccc(/C=N/NC(=S)Nc2ccc(Cl)cc2)n1` yielded a TGI of 15.8 µM. `Cc1ccc(O)c(-c2cc(-c3cccc(Br)c3)c(C#N)c(N)n2)c1` gave a TGI of 52.7 µM. `O=[N+]([O-])c1ccc(NC(=S)N=Nc2c(O)[nH]c3ccccc23)cc1` showed a TGI of 13.9 µM.

These compounds were tested on SW-620 colon (assay: NCI anticancer screen, dose series, 48 h).
Compound `COc1ccc(C(c2ccc(OC)cc2)N2C(=O)CCC2C(=O)O)cc1` (centres undefined) has a TGI greater than 100 µM. `CCOC(=O)C1=C(C#N)S(=O)(=O)c2c(oc(C)c2C)N1` was tested, and the TGI was greater than 100 µM. For `Cc1cccc(/C=N/NC(=S)Nc2ccc(Cl)cc2)n1`, the TGI was 20 µM. Work on `Cc1ccc(O)c(-c2cc(-c3cccc(Br)c3)c(C#N)c(N)n2)c1` yielded a TGI of 89.8 µM. `O=[N+]([O-])c1ccc(NC(=S)N=Nc2c(O)[nH]c3ccccc23)cc1` gave a TGI of 34.2 µM.

The compounds below were run on IGROV1 ovarian (assay: NCI anticancer screen, dose series, 48 h).
In the case of `COc1ccc(C(c2ccc(OC)cc2)N2C(=O)CCC2C(=O)O)cc1` (centres undefined), the TGI was greater than 100 µM. Work on `CCOC(=O)C1=C(C#N)S(=O)(=O)c2c(oc(C)c2C)N1` yielded a TGI greater than 100 µM. In the case of `Cc1cccc(/C=N/NC(=S)Nc2ccc(Cl)cc2)n1`, the TGI was 12.7 µM. `Cc1ccc(O)c(-c2cc(-c3cccc(Br)c3)c(C#N)c(N)n2)c1` was tested, and the TGI was 50.9 µM. With `O=[N+]([O-])c1ccc(NC(=S)N=Nc2c(O)[nH]c3ccccc23)cc1` the TGI was 29.3 µM.

What follows are compounds tested on LOX IMVI melanoma (assay: NCI anticancer screen, dose series, 48 h).
`COc1ccc(C(c2ccc(OC)cc2)N2C(=O)CCC2C(=O)O)cc1` (centres undefined) was tested, and the TGI was greater than 100 µM. Compound `CCOC(=O)C1=C(C#N)S(=O)(=O)c2c(oc(C)c2C)N1` has a TGI greater than 100 µM. Compound `Cc1cccc(/C=N/NC(=S)Nc2ccc(Cl)cc2)n1` has a TGI of 10.7 µM. In the case of `Cc1ccc(O)c(-c2cc(-c3cccc(Br)c3)c(C#N)c(N)n2)c1`, the TGI was 31.1 µM. With `O=[N+]([O-])c1ccc(NC(=S)N=Nc2c(O)[nH]c3ccccc23)cc1` the TGI was 36.3 µM.

These compounds were tested on ACHN renal (assay: NCI anticancer screen, dose series, 48 h).
Work on `COc1ccc(C(c2ccc(OC)cc2)N2C(=O)CCC2C(=O)O)cc1` (centres undefined) yielded a TGI greater than 100 µM. `CCOC(=O)C1=C(C#N)S(=O)(=O)c2c(oc(C)c2C)N1` showed a TGI greater than 100 µM. `Cc1cccc(/C=N/NC(=S)Nc2ccc(Cl)cc2)n1` was tested, and the TGI was 11.3 µM. `Cc1ccc(O)c(-c2cc(-c3cccc(Br)c3)c(C#N)c(N)n2)c1` gave a TGI of 49.3 µM. With `O=[N+]([O-])c1ccc(NC(=S)N=Nc2c(O)[nH]c3ccccc23)cc1` the TGI was 21.1 µM.

Each compound was assayed on A498 renal (assay: NCI anticancer screen, dose series, 48 h).
`COc1ccc(C(c2ccc(OC)cc2)N2C(=O)CCC2C(=O)O)cc1` (centres undefined) gave a TGI greater than 100 µM. For `CCOC(=O)C1=C(C#N)S(=O)(=O)c2c(oc(C)c2C)N1`, the TGI was greater than 100 µM.
